Experimental findings from ChEMBL document CHEMBL1144903, “Generation of predictive pharmacophore models for CCR5 antagonists: study with piperidine- and piperazine-based compounds as a new class of HIV-1 entry inhibitors” (J Med Chem, 2003) are described below.

In general, Ki refers to the dissociation constant of the complex between target and ligand, obtained from inhibition or displacement.

SMILES strings stand for the structures.

For this test, the target named is C-C chemokine receptor type 5 (Homo sapiens, UniProt P51681). The test is described as follows: Inhibition of RANTES binding to the human C-C chemokine receptor type 5 (CCR5).
Chain of C-C chemokine receptor type 5 (P51681 whole entry): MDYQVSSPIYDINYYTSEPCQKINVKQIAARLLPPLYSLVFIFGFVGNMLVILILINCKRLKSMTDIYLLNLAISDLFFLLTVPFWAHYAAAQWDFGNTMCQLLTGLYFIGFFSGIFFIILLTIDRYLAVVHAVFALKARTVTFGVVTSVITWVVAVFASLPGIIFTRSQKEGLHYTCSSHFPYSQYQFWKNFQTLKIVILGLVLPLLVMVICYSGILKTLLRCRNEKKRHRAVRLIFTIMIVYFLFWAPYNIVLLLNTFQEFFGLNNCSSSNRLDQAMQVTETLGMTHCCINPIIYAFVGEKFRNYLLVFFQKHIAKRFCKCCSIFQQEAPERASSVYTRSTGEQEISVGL
Regarding `CO/N=C(/c1ccc(Br)cc1)C1CCN(C2(C)CCN(C(=O)c3c(C)cc[n+]([O-])c3C)CC2)CC1`, the inhibition constant Ki was 19 nM. In the case of `CCO/N=C(/c1ccc(Br)cc1)C1CCN(C2(C)CCN(C(=O)c3c(C)c[n+]([O-])cc3C)CC2)CC1` it was 8.8 nM; in that of `CCO/N=C(/c1ccc(Br)cc1)C1CCN(C2(C)CCN(C(=O)c3ccc[n+]([O-])c3C)CC2)CC1`, more than 30 nM. With `Cc1cccc(C)c1C(=O)N1CCC(C)(N2CCN([C@@H](C)c3ccc(C(F)(F)F)cc3)[C@@H](C)C2)CC1` the figure was 1 nM; with `CCO/N=C(/c1ccc(Br)cc1)C1CCN(C2(C)CCN(C(=O)c3c(C)ccnc3C)CC2)CC1`, 1.1 nM.

In turn, `CCO/N=C(/c1ccc(S(C)(=O)=O)cc1)C1CCN(C2(C)CCN(C(=O)c3c(C)cc[n+]([O-])c3C)CC2)CC1` showed a Ki of 20 nM. In the case of `Cc1cccc(C)c1C(=O)N1CCC(C)(N2CCC(Cc3ccc(I)cc3)CC2)CC1` it was 33 nM; in that of `CCO/N=C(/c1ccc(F)cc1)C1CCN(C2(C)CCN(C(=O)c3c(C)cc[n+]([O-])c3C)CC2)CC1`, 30 nM; in that of `Cc1cccc(C)c1C(=O)N1CCC(C)(N2CCC(Cc3ccc(OC(F)(F)F)cc3)CC2)CC1`, 55 nM. In the case of `CCO/N=C(/c1ccc(C(F)(F)F)cc1)C1CCN(C2(C)CCN(C(=O)c3c(C)cc[n+]([O-])c3C)CC2)CC1` it was 3.8 nM; in that of `CO/N=C(/c1ccc(S(C)(=O)=O)cc1)C1CCN(C2(C)CCN(C(=O)c3c(C)cc[n+]([O-])c3C)CC2)CC1`, 30 nM; in that of `CCO/N=C(/c1ccc(Br)cc1)C1CCN(C2(C)CCN(C(=O)c3c(C)cccc3C)CC2)CC1`, 2 nM.

The compound `Cc1cccc(C)c1C(=O)N1CCC(C)(N2CCC(Cc3ccc(Cl)cc3)CC2)CC1` registered a Ki of 68 nM. In the case of `CCO/N=C(/c1ccc(Br)cc1)C1CCN(C2(C)CCN(C(=O)c3c(F)cccc3C(F)(F)F)CC2)CC1` it was 3 nM.

The compound `CO/N=C(/c1ccc(Br)cc1)C1CCN(C2(C)CCN(C(=O)c3c(C)cccc3C)CC2)CC1` returned an inhibition constant (Ki) of 2 nM. Compound `Cc1cccc(O)c1C(=O)N1CCC(C)(N2CCN([C@@H](C)c3ccc(I)cc3)[C@@H](C)C2)CC1` had an inhibition constant (Ki) of 7 nM.

`CO/N=C(/c1ccc(Br)cc1)C1CCN(C2(C)CCN(C(=O)c3c(C)cccc3N)CC2)CC1` returned a Ki of 4.5 nM.

In turn, `CO/N=C(/c1ccc(Br)cc1)C1CCN(C2(C)CCN(C(=O)c3c(C)ncnc3C)CC2)CC1` gave an inhibition constant Ki of 4.7 nM.

The compound `CCO/N=C(/c1ccc(Br)cc1)C1CCN(C2(C)CCN(C(=O)c3c(C)ncnc3C)CC2)CC1` showed a Ki of 2.2 nM.

On to `CCO/N=C(/c1ccc(Br)cc1)C1CCN(C2(C)CCN(C(=O)c3c(Br)c[n+]([O-])cc3Br)CC2)CC1`, for which the Ki amounted to 0.7 nM.

In turn, `CCO/N=C(/c1ccc(Br)cc1)C1CCN(C2(C)CCN(C(=O)c3c(C)cc[nH]c3=O)CC2)CC1` gave a Ki of more than 30 nM. In turn, `CCO/N=C(/c1ccc(Cl)cc1)C1CCN(C2(C)CCN(C(=O)c3c(C)cc[n+]([O-])c3C)CC2)CC1` came in with a Ki of 5.6 nM. As to `CCO/N=C(/c1ccc(Br)cc1)C1CCN(C2(C)CCN(C(=O)c3c(C)cc(C)nc3O)CC2)CC1`, the Ki stood at 43 nM.

As for `C=C(c1ccc(Br)cc1)C1CCN(C2(C)CCN(C(=O)c3c(C)cccc3C)CC2)CC1`, the inhibitory constant (Ki) stood at 8 nM. In the case of `CCO/N=C(/c1ccc(Br)cc1)C1CCN(C2(C)CCN(C(=O)c3c(C)cncc3C)CC2)CC1` it was 2.3 nM; in that of `Cc1cccc(C)c1C(=O)N1CCC(C)(N2CCC(Cc3ccc(S(C)(=O)=O)cc3)CC2)CC1`, 33 nM; in that of `C[C@H]1CN(C2(C)CCN(C(=O)c3c(N)cccc3Cl)CC2)CCN1[C@@H](C)c1ccc(I)cc1`, 12 nM. In the case of `CCO/N=C(/c1ccc(Br)cc1)C1CCN(C2(C)CCN(C(=O)c3cccnc3C)CC2)CC1` it was 26 nM; in that of `CCO/N=C(/c1ccc(Br)cc1)C1CCN(C2(C)CCN(C(=O)c3c(C)cc(-c4ccncc4)cc3C)CC2)CC1`, 0.1 nM.

In the case of `C[C@H]1CN(C2CCN(C(=O)c3c(F)cccc3I)CC2)CCN1[C@@H](C)c1ccc(I)cc1`, affinity was put at a Ki of 1300 nM. With `CNC(=O)CO/N=C(/c1ccc(Br)cc1)C1CCN(C2(C)CCN(C(=O)c3c(C)cccc3C)CC2)CC1` the figure was 33 nM; with `CCO/N=C(/c1ccc(Br)cc1)C1CCN(C2(C)CCN(C(=O)c3c(C)ccc[n+]3[O-])CC2)CC1`, 16 nM.

Turning to `CCO/N=C(/c1ccc(Br)cc1)C1CCN(C2(C)CCN(C(=O)c3ccc[n+]([O-])c3)CC2)CC1`, the inhibition constant Ki was more than 30 nM. Take `CO/N=C(/c1ccc(Br)cc1)C1CCN(C2(C)CCN(C(=O)c3c(C)ccnc3C)CC2)CC1`: the Ki turned out to be 1.1 nM.

In turn, `Cc1cccc(C)c1C(=O)N1CCC(C)(N2CCC(C(C)c3ccc(Br)cc3)CC2)CC1` (configuration not stated) gave a Ki of 62 nM. `Cc1cccc(C)c1C(=O)N1CCC(C)(N2CCC(Cc3ccc(-c4ccccc4)cc3)CC2)CC1` showed a Ki of 360 nM. For the compound `Cc1cccc(C)c1C(=O)N1CCC(C)(N2CCC(/C(=N\OC(C)(C)C)c3ccc(Br)cc3)CC2)CC1`, the affinity corresponds to a Ki of 9 nM.

Consider `COc1ccc(CC2CCN(C3(C)CCN(C(=O)c4c(C)cccc4C)CC3)CC2)cc1`, for which the Ki stood at 155 nM.

For the compound `Cc1cccc(C)c1C(=O)N1CCC(C)(N2CCC(/C(=N\OC(C)C)c3ccc(Br)cc3)CC2)CC1`, the inhibitory constant (Ki) is 4 nM.

The compound `Cc1cccc(C)c1C(=O)N1CCC(C)(N2CCC(/C(=N\Oc3ccccc3)c3ccc(Br)cc3)CC2)CC1` yielded a Ki of more than 30 nM. Consider `CCO/N=C(/c1ccc(Br)cc1)C1CCN(C2(C)CCN(C(=O)c3cccnc3)CC2)CC1`, for which the Ki was more than 30 nM.

`CCO/N=C(/c1ccc(Br)cc1)C1CCN(C2(C)CCN(C(=O)c3c(C)cc(O)nc3C)CC2)CC1` came in with a Ki of 7 nM. With `CCOC(=O)CO/N=C(/c1ccc(Br)cc1)C1CCN(C2(C)CCN(C(=O)c3c(C)cccc3C)CC2)CC1` the figure was 33 nM. `CCO/N=C(/c1ccc(Br)cc1)C1CCN(C2(C)CCN(C(=O)c3c(Cl)c[n+]([O-])cc3Cl)CC2)CC1` yielded a Ki of 1.2 nM.

The compound `Cc1cccc(C)c1C(=O)N1CCC(C)(N2CCC(Cc3ccc(C(F)(F)F)cc3)CC2)CC1` came in with a Ki of 25 nM. With `Cc1ccc(CC2CCN(C3(C)CCN(C(=O)c4c(C)cccc4C)CC3)CC2)cc1` the figure was 110 nM; with `CO/N=C(/c1ccc(Br)cc1)C1CCN(C2(C)CCN(C(=O)c3c(N)cccc3Cl)CC2)CC1`, 3.4 nM.
